Laboratory results from paper PMC12646587, “Advanced cardiotoxicity profiling using field potential imaging with UHD-CMOS-MEA in human iPSC-derived cardiomyocytes” (Toxicological Sciences, 2025).
Read-outs that look alike come from different tables or passages of the source. One block for each compound: values may come before it.

Columns and labels:
[1] = test system: human iPSC-derived cardiomyocytes; assay: Field potential imaging (FPI) with UHD-CMOS-MEA, acute drug treatment; assay type: cell-based; conditions: for significant changes in any of the measured parameters (17 beat parameters): 10, 100 μM; for BR (beat rate): arrows = direction, – = none; for FPI (concentration at which changes were detected): changed parameters in brackets in each cell
Method: Cryopreserved iCell Cardiomyocytes (FUJIFILM Cellular Dynamics, Inc.) were handled according to the supplier’s instructions. Cells were thawed in a 37 °C water bath for approximately 3 min and resuspended in iCell Thawing Medium to prepare a cell suspension at a final concentration of 1 × 10^7 cells/ml. A total of 10 µl of the cell suspension (100,000 cells per chip) was seeded directly onto the fibronectin-coated electrode area of each chip. Chips were incubated at 37 °C for 1 h to allow cell attachment, after which 1 ml of maintenance medium was gently added. […] Thereafter, medium exchanges were performed twice weekly by replacing half the medium volume.
Compounds were dissolved in culture medium containing 0.1% DMSO and administered cumulatively at increasing concentrations. Drug solutions were applied directly to the culture wells, and measurements were initiated 30 min after administration. […] All recordings were performed under spontaneous beating conditions, with no external pacing applied.
Recordings were performed at a sampling rate of 2 kHz, with a 2-min recording duration per condition. Data acquisition was controlled via proprietary software (Sony Semiconductor Solutions), and all raw signals were stored for offline analysis. All experiments were conducted in a humidified environment at 37 °C with 5% CO2, ensuring physiological conditions during both drug exposure and recording.
Spikes from hiPSC-derived cardiomyocytes were initially detected at each electrode using a voltage threshold of ±100 µV via BinViewer software (SCREEN Holdings Co., Ltd, Japan). The resulting spike data were then processed using a custom MATLAB (MathWorks, Natick, MA) script to perform beat detection. Firing count histograms were generated using a bin size of 0.5 ms, and peak detection within these histograms identified the timing and propagation duration of beats across the electrode array. For each electrode, the maximum spike amplitude and its corresponding peak timing were calculated to generate heat maps of field potential amplitude and activation timing. […]

[2] = test system: human iPSC-derived cardiomyocytes; assay: PCA of beat parameters: cardiotoxicity risk and mechanism classification; assay type: cell-based; conditions: for position in PCA space: across all tested concentrations
Method: Each parameter set was evaluated for its ability to separate cardiotoxic and non-cardiotoxic compounds while maintaining minimal variance among negative controls. […] To assess cardiotoxicity, PCA scores of test compounds were plotted in the PC space, and their positions were compared with the SD-defined zones of the negative control group. Risk levels were classified as follows: Low risk (within 1 SD), medium risk (between 1 and 2 SD), and high risk (beyond 2 SD). Dose-dependent cardiotoxicity potential was estimated based on displacement from the negative control cluster.
To establish a risk classification framework, the standard deviation (SD) range of negative control compounds in PCA space was used to define 3 zones: Within the SD range (low risk), between 1 and 2 SD (medium risk), and beyond 2 SD (high risk) (Fig. 6B). Risk levels derived from PCA distribution were compared with IC50 and Cmax values reported for each compound and associated ion channels (Table 5).

hiPSC-CMs = assay: Conventional MEA recording (16-electrode Axion Maestro), acute exposure; assay type: cell-based, human
Method: To enable comparison with the UHD-CMOS-MEA recordings, conventional extracellular field potential recordings were performed using 16-electrode MEA plates on a commercially available MEA system (Axion Maestro, Axion Biosystems), in accordance with the general principles of the CiPA initiative. hiPSC-CMs were cultured and maintained on the MEA plates under spontaneous beating conditions at 37 °C. Recordings were conducted after 10 to 14 DIV, and data acquisition and beat detection were performed using the built-in algorithms of the AxIS software (Axion Biosystems), without the use of external pacing. […] Each compound was applied under acute exposure conditions, and field potential recordings were obtained for 30 min following drug administration.
To evaluate the measurement capabilities of a conventional MEA system, the same set of 7 compounds was tested using the 16-electrode Axion Maestro platform.

[3] = cited from earlier work
cardiomyocytes [4] = conditions: cited from earlier work
cardiomyocytes [5] = conditions: BR20 (20% reduction in beat rate), cited from earlier work
CaV = conditions: cited from earlier work
cardiomyocytes [6] = conditions: CTD90 ↑; ref Lu et al. 2019; cited from earlier work
NaV = conditions: cited from earlier work
hERG = conditions: read-out: IC50 hERG; ref Clements et al. 2015; cited from earlier work
[7] = acute, statistically significant change vs before

IBI (hiPSC-CMs; acute): shortened | beat frequency (hiPSC-CMs; acute): increased | field potential (spike) amplitude (hiPSC-CMs; acute): significant reduction | IBI (interbeat interval) [1, 7]: reduced and ↓ | BR (beat rate) [1, 7]: increased and ↑
SMILES: COc1ccc([C@@H]2Sc3ccccc3N(CCN(C)C)C(=O)[C@@H]2OC(C)=O)cc1 [Diltiazem]

Amp. (amplitude) [1, 7]: ↓ | Area (propagation area) [1, 7]: ↓ | IBI (interbeat interval) [1, 7]: prolonged and ↑ | BR (beat rate) [1, 7]: ↓ | FPI (concentration at which changes were detected) [1]: 1 (BR) μM
SMILES: CC(C)N(CCC(C(N)=O)(c1ccccc1)c1ccccn1)C(C)C (stereo not drawn) [Disopyramide]
Cmax Free ([3]; ref Liu et al. 2021): 0.7 ([Liu et al. 2021]) μM | Veloc. (conduction velocity) [1, 7]: ↓ | MEA assay (cardiomyocytes [4]; FPDc10 (10% prolongation of FPDc), ref Ando et al. 2017): 0.74 ([Ando et al. 2017]) (FPDc10) µM | IC50 (CaV; ref Kramer et al. 2013): 1040 µM | HCA assay (cardiomyocytes [6]): 10 ([Lu et al. 2019]) (CTD90 ↑) µM | FPI PCA (concentration at which changes were detected) [2]: 1 µM | IC50 (NaV; ref Kramer et al. 2013): 168 µM

average number of excitation origins per beat ([1]; 10 nM, n = 6 wells): 1.51 ± 0.02 | total number of active electrodes ([1]; 30 nM, Before: 149,149.4 ± 3,090.5): 149,185.2 ± 2,882.6 | beating frequency ([1]; 30 nM, before 35.5 bpm): 57.0 bpm | average number of excitation origins per beat ([1]; 30 nM, n = 6 wells): 1.61 ± 0.02 | Area STV [1, 7]: decreased and ↓ | IBI (interbeat interval) [1, 7]: ↓ | BR (beat rate) [1, 7]: increased and ↑ | FPI (concentration at which changes were detected) [1]: 0.01 (BR, IBI) μM
SMILES: CC(C)NCC(O)c1ccc(O)c(O)c1 (stereo not drawn) [Isoproterenol]
Impedance assay (cardiomyocytes [5]; ref Doherty et al. 2015): 0.01 ([Doherty et al. 2015]) (BR20) µM | FPI PCA (concentration at which changes were detected) [2]: 0.01 µM

spontaneous beating (hiPSC-CMs; 10 μM): ceased entirely | IBI (hiPSC-CMs; acute): reached statistical significance | beat frequency (hiPSC-CMs; acute): reached statistical significance | field potential (spike) amplitude (hiPSC-CMs; acute): increase | propagation area (hiPSC-CMs; acute): not captured | beating frequency ([1]; 10 µM, before 64.5 bpm): 31.5 bpm | number of active electrodes ([1]; 10 µM, before 115,437.9 ± 582.1): 93,595.6 ± 11,323.1 | Amp. (amplitude) [1, 7]: decreased and ↓ | Amp. CV [1, 7]: increased and ↑ | Area (propagation area) [1, 7]: decreased and ↓ | IBI (interbeat interval) [1, 7]: increase and ↑ | BR (beat rate) [1, 7]: decreased and ↓ | FPI (concentration at which changes were detected) [1]: 10 (BR, IBI, Ampl. Area, Veloc.) μM
SMILES: Cc1cccc(C)c1OCC(C)N (stereo not drawn) [Mexiletine]
IC50 (hERG): 62.2 µM | conduction velocity (hiPSC-CMs; acute): not captured | magnitude of change in beat frequency and IBI (hiPSC-CMs; acute): 2.2% | Cmax Free ([3]; ref Crumb et al. 2016): 2.5 ([Crumb et al. 2016]) μM | beat-wise variability in conduction speed ([1]; 10 µM, post-treatment): increased variability | average conduction velocity ([1]; 10 µM, before 0.147 ± 0.004, n = 6 wells): 0.109 ± 0.009 m/s | proportion of the area with conduction velocity exceeding 0.3 m/s ([1]; 10 µM, before 4.9%): 0.6% | Veloc. (conduction velocity) [1, 7]: decreased and ↓ | MEA assay (cardiomyocytes [4]; Spike amp., ref Clements and Thomas 2014): 3.0 ([Clements and Thomas 2014]) (Spike amp.) µM | Impedance assay (cardiomyocytes [5]; ref Guo et al. 2013): 3.0 ([Guo et al. 2013]) (BR20) µM | IC50 (CaV; ref Clements et al. 2015): 125 µM | FPI PCA (concentration at which changes were detected) [2]: 1 µM | IC50 (NaV; ref Clements et al. 2015): 38 µM

Second part, the compound before the results:

SMILES: CC1(C)S[C@@H]2[C@H](NC(=O)[C@H](N)c3ccc(O)cc3)C(=O)N2[C@H]1C(=O)O [Amoxicillin]
significant changes in any of the measured parameters (17 beat parameters) ([1]; acute): did not induce significant changes | position in PCA space [2]: remained near the origin

SMILES: CC(=O)Oc1ccccc1C(=O)O [Aspirin]
significant changes in any of the measured parameters (17 beat parameters) ([1]; acute): did not induce significant changes | position in PCA space [2]: remained near the origin

SMILES: CC(C)COCC(CN(Cc1ccccc1)c1ccccc1)N1CCCC1 (stereo not drawn) [Bepridil]
IBI (hiPSC-CMs; acute): statistically significant changes | IBI variability, amplitude variability, conduction velocity variability and STV of conduction (hiPSC-CMs; acute): not detected | magnitude of change in beat frequency and IBI (hiPSC-CMs; acute): less than 5% | Cmax Free ([3]; ref Crumb et al. 2016): 0.032 ([Crumb et al. 2016]) μM | Amp. CV [1, 7]: decreased and ↓ | IBI (interbeat interval) [1, 7]: ↓ | IBI CV [1, 7]: decreased and ↓ | Veloc. CV [1, 7]: decreased and ↓ | Veloc. STV [1, 7]: ↓ | MEA assay (cardiomyocytes [4]; FPD, ref Kaneko et al. 2014): 10 ([Kaneko et al. 2014]) (FPD) µM | Impedance assay (cardiomyocytes [5]; ref Guo et al. 2013): 0.03 ([Guo et al. 2013]) (BR20) µM | IC50 (CaV; ref Clements et al. 2015): 1 µM | HCA assay (cardiomyocytes [6]): 1.0 ([Lu et al. 2019]) (CTD90 ↑) µM | IC50 (NaV; ref Clements et al. 2015): 2.3 µM

SMILES: C=C[C@H]1C[N@@]2CC[C@H]1C[C@@H]2[C@@H](O)c1ccnc2ccc(OC)cc12 [Quinidine]
IBI (hiPSC-CMs; acute): prolonged | beat frequency (hiPSC-CMs; acute): reduced | conduction velocity (hiPSC-CMs; acute): decreased | field potential (spike) amplitude (hiPSC-CMs; acute): decreased | propagation area (hiPSC-CMs; acute): decreased | Cmax Free ([3]; ref Blinova et al. 2018): 3 ([Blinova et al. 2018]) μM | Amp. (amplitude) [1, 7]: decreased and ↓ | Area (propagation area) [1, 7]: decreased and ↓ | Area CV [1, 7]: increasing and ↑ | IBI (interbeat interval) [1, 7]: increasing and ↑ | BR (beat rate) [1, 7]: decreased and ↓ | MEA assay (cardiomyocytes [4]; FPD, ref Harris et al. 2013): 0.3 ([Harris et al. 2013]) (FPD) µM | Impedance assay (cardiomyocytes [5]; ref Guo et al. 2013): 10 ([Guo et al. 2013]) (BR20) µM | position on the PCA plot relative to mechanism-of-action groups ([2]; 10 μM): plotted near compounds acting on hERG channels

SMILES: COc1ccc(CCN(C)CCCC(C#N)(c2ccc(OC)c(OC)c2)C(C)C)cc1OC (stereo not drawn) [Verapamil]
IBI (hiPSC-CMs; acute): shortened | beat frequency (hiPSC-CMs; acute): increased | field potential (spike) amplitude (hiPSC-CMs; acute): decreasing trend | Amp. CV [1, 7]: ↓ | Amp. STV [1, 7]: ↓ | Dist Origin [1, 7]: reduced and ↓ | Dist Origin STV [1, 7]: ↓ | IBI (interbeat interval) [1, 7]: reduced and ↓ | No. of Origin [1, 7]: ↓ | BR (beat rate) [1, 7]: increased and ↑ | FPI (concentration at which changes were detected) [1]: 0.003 (IBI, Amp. STV, Dist Origins, Dist Origins STV) μM
